Data: paper PMC9544171, “Glucose‐dependent insulinotropic polypeptide receptor antagonist treatment causes a reduction in weight gain in ovariectomised high fat diet‐fed mice” (British Journal of Pharmacology, 2022)
Where a SMILES comes first, the peptide text is derived from it. The star is where a group is joined. C16 diacid = O=C(O)CCCCCCCCCCCCCCC(=O)*

Tests used:
mouse GIP receptor = molecular target: T1, mouse GIP receptor (Mus musculus, UniProt Q0P543); assay: cAMP accumulation, antagonism of mouse GIP(1‐42) in transfected COS‐7 cells; format: cell-based
T1 construct: host or cells: COS-7
T1 sequence (Q0P543 19-460): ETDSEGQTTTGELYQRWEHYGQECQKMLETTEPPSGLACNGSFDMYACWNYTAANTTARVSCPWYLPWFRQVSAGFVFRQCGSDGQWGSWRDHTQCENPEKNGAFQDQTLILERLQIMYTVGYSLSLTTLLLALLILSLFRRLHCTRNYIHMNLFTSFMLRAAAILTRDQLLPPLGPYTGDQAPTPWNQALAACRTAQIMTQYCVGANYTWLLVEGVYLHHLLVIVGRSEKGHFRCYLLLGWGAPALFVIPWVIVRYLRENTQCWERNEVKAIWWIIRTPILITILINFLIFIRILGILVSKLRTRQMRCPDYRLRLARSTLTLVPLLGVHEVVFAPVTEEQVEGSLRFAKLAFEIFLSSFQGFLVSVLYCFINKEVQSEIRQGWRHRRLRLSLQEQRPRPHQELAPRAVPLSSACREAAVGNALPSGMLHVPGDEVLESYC
Description: COS‐7 cells were cultured at 10% CO2 and 37°C in Dulbecco's Modified Eagle Medium 1885 supplemented with 10% foetal bovine serum, 2‐mM glutamine, 180‐units ml^−1 penicillin and […] streptomycin. Transient transfection of the cells with either human or mouse GIP receptor was performed using the calcium phosphate precipitation method as previously described (van der Velden et al., [2021]). A second set of cells was transiently transfected with either mouse GLP‐1 or GLP‐2 receptor. Following the day after transfection, the cells were seeded in white 96‐well plates with a density of 35.000 cells per well. The next day the assay was initiated by washing the cells with HEPES buffered saline (HBS) followed by an incubation step with HBS and 1‐mM 3‐isobutyl‐1‐methylxanthine for 30 min at 37°C. For agonist studies, the ligands were then added and incubated for an additional 30 min at 37°C. To test for antagonistic properties, the cells were first preincubated for 10 min with the antagonist with subsequent addition of the agonist and incubated for an additional 20 min. The HitHunter® cAMP assay (Eurofins DiscoverX, Fremont, USA) was carried out according to the manufacturer's protocol. Luminescence was measured by PerkinElmer™ Envision 2014 Multilabel Reader.
To facilitate comparisons of assay outputs (cAMP assays), the results (of duplicate measurements) were normalized, with the response to 10 pM of GIP(1‐42) set as 100%. All ligand concentrations are reported as log‐transformed. The IC50 log values can be found in Figure 1. In Figure 3c, we have subtracted glucose levels from baseline to show the net differences in glucose levels in our different treatment groups. […]
Results are presented as mean ± SE. Data were analysed with one‐way and two‐way analysis of variance (ANOVA) with Tukey's or Sidak multiple comparisons test and Student's unpaired t tests where appropriate. […] For the in vitro data IC50 values were determined by nonlinear regression using GraphPad Prism 9 (San Diego, California, USA). […]

[1] = tested on: Female ovariectomised C57Bl6/J mice; assay: HFD study in ovariectomised mice, body weight and composition, 8 weeks; format: in vivo, mouse
Description: Prior to bilateral ovariectomy surgery and once daily for 48 h following, mice received analgesics through s.c. injection of carprofen (Rimadyl; 5 mg·kg^−1). Anaesthesia was induced in an induction chamber with 5% isoflurane and maintained with 2% isoflurane through a nose cone during the procedure. Proper respiration was ensured with a flow of oxygen through the nose cone and body temperature was maintained at 37°C by placing the mice on a heating pad. Mice were placed in a prone position on a sterile surgery pad and the area of incision was shaved and sterilized with 70% ethanol. Two dorsal‐lateral incisions were made and the ovary and attached fat pad were individually pulled out of the abdominal cavity. The fallopian tubes were ligated and the ovaries were dissected, then the fat pad was carefully placed back in the abdominal cavity. The skin incision was closed using wound clips (Reflex, Alzet, Cupertino, CA, USA). In half of the animals, a microtransponder (Datamars, Lamone, Switzerland) was inserted and animals were placed in an HM‐2 cage with the intention to measure food intake (MBrose, Faaborg, Denmark) and left to recover and acclimatize for a week. The remaining animals were placed back in their home cages to recover for a week. The division of mice into HM‐2 cages and home cages was randomized. Uterine atrophy was confirmed in all mice upon termination of the study, indicating successful ovariectomy.
A week after ovariectomy, at 10 weeks of age, animals were randomized into groups and placed on a 60 kcal% HFD (HFD, D12492, Research Diets, New Brunswick, NJ, USA) or a control diet (10 kcal% fat, D12450J, Research Diets) for 8 weeks. Group sizes were as follows: Vehicle/control diet, n = 12; mGIPAnt‐1/control diet, n = 12; Vehicle/HFD, n = 11; mGIPAnt‐1/HFD, n = 12. The reduction of animal numbers in group Vehicle/HFD was due to unexpected loss of an animal. Animals received a daily s.c. injection at 4:30 PM with mGIPAnt‐1 (300‐nmol·kg^−1) or vehicle. Body weight and body composition were assessed weekly (LF90II body composition analyzer, Bruker, Billerica, MA, USA). On the final experimental day, animals were anaesthetized with an intraperitoneal injection of 90 mg·kg^−1 ketamine and 10‐mg·kg^−1 xylazine. The microchip was quickly removed from HM‐2 cage animals and a final body composition measurement was performed on all animals. A terminal retro‐orbital blood sample was taken, mice were killed through cervical dislocation and tissues were quickly dissected and weighed.

## CC[C@H](C)[C@H](NC(=O)[C@H](CO)NC(=O)[C@H](Cc1ccc(O)cc1)NC(=O)[C@H](CC(=O)O)NC(=O)[C@H](CO)NC(=O)[C@@H](NC(=O)[C@H](Cc1ccccc1)NC(=O)[C@@H](NC(=O)CNC(=O)[C@@H](N)CCC(=O)O)[C@@H](C)O)[C@@H](C)CC)C(=O)N[C@@H](C)C(=O)N[C@@H](CCSC)C(=O)N[C@@H](CC(=O)O)C(=O)N[C@@H](CCCCN)C(=O)N[C@H](C(=O)N[C@@H](CCCCNC(=O)CCCCCCCCCCCCCCC(=O)O)C(=O)N[C@@H](CCC(N)=O)C(=O)N[C@@H](CCC(N)=O)C(=O)N[C@@H](CC(=O)O)C(=O)N[C@@H](Cc1ccccc1)C(=O)N[C@H](C(=O)N[C@@H](CC(N)=O)C(=O)N[C@@H](Cc1c[nH]c2ccccc12)C(=O)N[C@@H](CC(C)C)C(=O)N[C@@H](CC(C)C)C(=O)N[C@@H](C)C(=O)N[C@@H](CCC(N)=O)C(=O)N[C@@H](CCCCN)C(=O)NCC(=O)N[C@@H](CCCCN)C(=O)N[C@@H](CCCCN)C(=O)N[C@@H](CC(N)=O)C(=O)N[C@@H](CC(=O)O)C(=O)N[C@@H](Cc1c[nH]c2ccccc12)C(=O)N[C@@H](CCCCN)C(=O)N[C@@H](Cc1c[nH]cn1)C(=O)N[C@@H](CC(N)=O)C(=O)O)C(C)C)[C@@H](C)CC [mGIPAnt‐1] (H-EGTFISDYSIAMDKIK(C16 diacid)QQDFVNWLLAQKGKKNDWKHN-OH)
Mouse GIP receptor; COS‐7 transiently transfected with mouse GIPR, 10 min preincubation with antagonist, then mouse GIP(1‐42) at 50%–80% of Emax for 20 min, HitHunter cAMP, Hill slope −1.0, n = 5 independent experiments, read-out: IC50, inhibition of mGIP‐induced cAMP accumulation, mouse GIPR
  IC50: 269 nM
Mouse GIP receptor; ratio of IC50 813 nM / 269 nM
  potency relative to mGIP(3‐30)NH2 on the mouse GIP receptor: 3 fold
[1]; 300 nmol·kg−1 s.c. daily, 8 weeks
  final lean body mass: not affected
[1]; 300 nmol·kg−1 s.c. daily, 8 weeks, 60 kcal% HFD, versus Vehicle/HFD, n = 11–12
  body weight, HFD: body weight in the control, HFD group was significantly higher compared to the mGIPAnt‐1/HFD group
[1]; 300 nmol·kg−1 s.c. daily, 8 weeks, control diet, n = 12
  absolute body weight, control diet: not affected
[1]; 300 nmol·kg−1 s.c. daily, 8 weeks, two‐way ANOVA
  total body weight gain, overall treatment effect: reducing total body weight gain
[1]; at 6 and 8 weeks, 300 nmol·kg−1 s.c. daily, versus Control/HFD, n = 6
  body fat percentage, HFD: Control/HFD animals significantly increased body fat percentage compared to mGIPAnt‐1/HFD animals
[1]; terminal
  BAT weight: not affected
  eWAT weight, control diet: did not affect
  iWAT weight, control diet: did not affect
  liver weight: not affected
[1]; terminal, versus Vehicle/HFD
  eWAT weight, HFD: reduced
  iWAT weight, HFD: reduced
